Laboratory results: ChEMBL document CHEMBL1146394, “New antihepatotoxic cerebroside from Lycium chinense fruits” (1997)

Columns and labels:
Hepatocyte [1] = assay: Antihepatotoxic activity against CCl4-induced cytotoxicity in rat hepatocytes assessed as blockade of glutamic pyruvic transaminase release at 25 uM by Reitman-Frankel method relative to control; assay type: functional
Hepatocyte [2] = assay: Antihepatotoxic activity against CCl4-induced cytotoxicity in rat hepatocytes assessed as blockade of sorbitol dehydrogenase release at 25 uM by modified Gerlach method relative to control; assay type: functional

`CCCCCCCCC/C=C\CC/C=C/[C@@H](O)[C@H](CO[C@@H]1O[C@H](CO)[C@@H](O)[C@H](O)[C@H]1O)NC(=O)C(O)CCCCCCCCCCCCCC` (stereo partly specified) was tested, and the Activity (Hepatocyte [1]) was 86.4% and the Activity (Hepatocyte [2]) was 69.5%.

`COc1cc(C2Oc3cc([C@H]4Oc5cc(O)cc(O)c5C(=O)[C@@H]4O)ccc3OC2CO)ccc1O` (stereo partly specified) [SILIBININ] was tested, and the Activity (Hepatocyte [1]) was 76% and the Activity (Hepatocyte [2]) was 58.9%.

For `CCCCCCCCC/C=C\CC/C=C/[C@@H](O)[C@H](CO[C@@H]1O[C@H](CO)[C@@H](O)[C@H](O)[C@H]1O)NC(=O)CCCCCCCCCCCCCCC`, the Activity (Hepatocyte [1]) was 95.6% and the Activity (Hepatocyte [2]) was 80.2%.
